From article PMC11364768 (Nature Communications, 2024)
Converted amounts (≈) assume the structure as drawn. No end group written: not given here.

Columns and labels:
[1] = system: K. pneumoniae (ATCC27736); assay: Minimal inhibition concentration; format: cell-based; details: Klebsiella pneumoniae, ATCC27736, 20 h, read-out: Antimicrobial activity (MIC in µg/ml) K. pneumoniae
E. coli (ATCC BAA-1025) = assay: Minimal inhibition concentration; format: cell-based; details: Escherichia coli, ATCCBAA1025, 20 h, read-out: Antimicrobial activity (MIC in µg/ml) E. coli
S. aureus (ATCC 25904) = assay: Minimal inhibition concentration; format: cell-based; details: Staphylococcus aureus, ATCC25904, 20 h, read-out: Antimicrobial activity (MIC in µg/ml) S. aureus
[2] = system: P. aeruginosa (ATCC 47085); assay: Minimal inhibition concentration; format: cell-based; details: Pseudomonas aeruginosa, ATCC47085, 20 h, read-out: Antimicrobial activity (MIC in µg/ml) P. aeruginosa
P. aeruginosa = assay: Wound mouse model, bacterial load on the wound surface; format: in vivo, Female ICR mice; details: 10^7 CFU P. aeruginosa inoculated; 10 mg/kg applied to wound twice a day; n = 8
S. aureus = assay: Bacterial resistance development, serial passage; format: cell-based, Staphylococcus aureus; details: passaged every 24 h, n = 4
Organ = format: in vivo, ICR mice; details: mice, 10 mg/kg
[3] = Blood test, RBC parameters after intraperitoneal injection; format: in vivo, ICR mice; details: mice, 24 h after intraperitoneal injection

| Compound | MIC [1] | organ-specific toxicity, tissue section images (Organ) | Blood test results [3] | also measured |
| --- | --- | --- | --- | --- |
| CN[C@H](CC(C)C)C(=O)N[C@H]1C(=O)N[C@@H](CC(N)=O)C(=O)N[C@H]2C(=O)N[C@H]3C(=O)N[C@H](C(=O)N[C@H](C(=O)O)c4cc(O)cc(O)c4-c4cc3ccc4O)[C@H](O)c3ccc(c(Cl)c3)Oc3cc2cc(c3O[C@@H]2O[C@H](CO)[C@@H](O)[C@H](O)[C@H]2O[C@H]2C[C@](C)(N)[C@H](O)[C@H](C)O2)Oc2ccc(cc2Cl)[C@H]1O [Vancomycin] | 1000 µg/mL (≈ 690 µM) |  |  |  |
| C[C@H]1COc2c(N3CCN(C)CC3)c(F)cc3c(=O)c(C(=O)O)cn1c23 [Levofloxacin] | 0.06 µg/mL (≈ 0.166 µM) |  |  | MIC (E. coli (ATCC BAA-1025)): 2.93 µg/mL (≈ 8.11 µM); MIC (S. aureus (ATCC 25904)): 0.09 µg/mL (≈ 0.249 µM); MIC [2]: 7.81 µg/mL (≈ 21.6 µM); bacteria on the infected wound after 24 h treatment (P. aeruginosa): 0 CFU |
| O=C(O)c1cn(C2CC2)c2cc(N3CCNCC3)c(F)cc2c1=O [ciprofloxacin] |  |  |  | passages after which S. aureus began to develop resistance (S. aureus): 10 passages |
| RQIRIWFQWKRWKWKR [T2-10] |  | did not observe organ-specific toxicity | no obvious changes |  |
| RQIKIWFQIRRWKWKK [T1-2] |  | did not observe organ-specific toxicity | no obvious changes |  |
| RQIKIWFQWRRWKWKK [T1-5] |  | did not observe organ-specific toxicity | no obvious changes |  |
